SMILES strings stand for the structures.

One series concerns the target T1, UbE2T (Homo sapiens, UniProt Q9NPD8).
T1 sequence (Q9NPD8 1-197): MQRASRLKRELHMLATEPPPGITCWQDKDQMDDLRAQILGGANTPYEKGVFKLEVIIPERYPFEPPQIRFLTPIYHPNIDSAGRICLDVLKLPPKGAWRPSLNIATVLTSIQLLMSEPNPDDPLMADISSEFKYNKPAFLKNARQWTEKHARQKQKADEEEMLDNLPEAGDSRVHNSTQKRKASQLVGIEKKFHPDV
The series can be described thus: ITC, Flag-UbE2T. It counts as binding. The arrangement: host or cells: HEK293T. The source says:
(§1) Purification of Flag-tagged DDX5 (Flag-DDX5), USP2a (Flag-USP2), UbE2T (Flag-(bE2T) and topoisomerase 1 (Top1) (Flag-Top1) proteins: Flag-DDX5, Flag-USP2, Flag-UbE2T and Flag-Topl proteins were purified from the protein expression vector-transfected HEK293T cells by using the FLAG® M Purification Kit for mammalian expression systems (CELLMM2-IKT, Sigma). Briefly, sub-confluent populations of HEK293T cells were transfected with expression vectors for Flag-DDX5, Flag-USP2, Flag-UbE2T and Flag-Top1 (OriGene) using Lipofectamine 2000 (Invitrogen) as per the manufacturer's instructions. After 72h of transfection, cells were lysed in Cell Lytic M lysis reagent (Sigma Cat #C2978) containing a protease inhibitor cocktail. […]
(§2) Replacement of the Tris-HCl buffer with the PBS buffer for purified proteins for drug-protein binding analyses using isothermal titration calorimetry (ITC): After the purified proteins were eluted from the agarose resin with 3×flag peptide, the same purified protein samples from different batches were combined. […] The PBS-resuspended protein samples were recovered from the reservoir and the protein concentrations were determined using the nano-drop reader (Bio-Rad) and BCA Protein Assay (Thermo/Pierce) for double-making sure the concentration. […]
On the technique in general: Isothermal titration calorimetry measures the heat released or taken up as one component is titrated into another.

Another series concerns the target T2, USP2a (Homo sapiens, UniProt O75604).
T2 sequence (O75604 1-605): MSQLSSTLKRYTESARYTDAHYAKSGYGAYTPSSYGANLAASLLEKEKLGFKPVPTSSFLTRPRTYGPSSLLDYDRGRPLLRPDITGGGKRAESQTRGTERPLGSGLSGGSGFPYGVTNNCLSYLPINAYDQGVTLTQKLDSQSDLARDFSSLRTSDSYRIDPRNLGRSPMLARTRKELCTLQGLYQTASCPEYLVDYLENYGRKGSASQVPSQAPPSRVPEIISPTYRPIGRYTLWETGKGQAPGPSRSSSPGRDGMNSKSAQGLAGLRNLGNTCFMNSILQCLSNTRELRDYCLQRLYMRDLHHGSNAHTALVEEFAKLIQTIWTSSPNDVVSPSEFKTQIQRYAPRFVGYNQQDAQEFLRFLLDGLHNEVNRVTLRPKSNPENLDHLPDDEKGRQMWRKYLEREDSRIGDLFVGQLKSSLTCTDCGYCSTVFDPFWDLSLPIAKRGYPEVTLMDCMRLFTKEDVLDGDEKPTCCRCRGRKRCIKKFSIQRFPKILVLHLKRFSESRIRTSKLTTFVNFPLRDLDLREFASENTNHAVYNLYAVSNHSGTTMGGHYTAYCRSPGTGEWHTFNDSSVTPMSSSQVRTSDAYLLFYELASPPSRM
Kind of series: ITC, Flag-USP2a. It counts as binding. Further details: host or cells: HEK293T.
Text: as §1, §2

A further series has as its system SK-ES-1 OS tumors. The series can be described thus: SK-ES-1 osteosarcoma xenograft. Format: in vivo, SCID mice. Particulars: weekly×4.
A short description of series [1]: Plasma protein binding (RED). Particulars: both, human, % Bound of Plasma, Test Article (FL118), 37° C.

Text for SK-ES-1 OS tumors: The SK-ES-1 OS cells (2×10^6 per tumor site) mixed with 50% Matrigel were subcutaneously injected into 2-3 SCID mice in the flank area to establish xenograft tumors. The established OS tumors were implanted into experimental SCID mice for drug efficacy studies. […] The schedule and route were weekly×4 via oral (p.o.) administration (arrowed). Each tumor curve is the mean tumor size+SD from 2-4 SCID mice. […] Each body weight change curve is the mean body weight change+SD from 2-4 SCID mice.

By Kd is commonly meant the constant that tells how readily two partners part at equilibrium. A low value points to a tighter complex. As a reminder, the fraction unbound is the share of the substance not bound to proteins or other matrix. Low values mean extensive binding, high ones weak binding. Take `CCC1(O)C(=O)OCc2c1cc1n(c2=O)Cc2cc3cc4c(cc3nc2-1)OCO4` (stereo not shown) [FL118]: the Kd on UbE2T stood at 0.16 µM; on USP2a it was 0.0523 µM. Further, the antitumor efficacy result in the series with SK-ES-1 OS tumors is given as “effectively eliminated human osteosarcoma xenograft tumors”. In series [1], this compound gave a free fraction (fraction unbound) at 4 h, 1 μM of under 0.01.

These data come from patent US20250312469A1 (CANGET BIOTEKPHARMA, priority 2024, published 2025).
